Activity calls are given as the source filed them.
What was measured:
[1] = target: T1, Microphthalmia-associated transcription factor (Homo sapiens, UniProt O75030); test: reducers of TRPM1 reporter luminescence, concentration series – cell-based, SK-MEL-5, cherry-picked, set 3, MITF inhibitor project, dose response (AID 493073); format: functional;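 further: SK-MEL-5 melanoma cells with luciferase driven by the MITF target TRPM1 promoter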
T1 sequence (O75030 whole entry): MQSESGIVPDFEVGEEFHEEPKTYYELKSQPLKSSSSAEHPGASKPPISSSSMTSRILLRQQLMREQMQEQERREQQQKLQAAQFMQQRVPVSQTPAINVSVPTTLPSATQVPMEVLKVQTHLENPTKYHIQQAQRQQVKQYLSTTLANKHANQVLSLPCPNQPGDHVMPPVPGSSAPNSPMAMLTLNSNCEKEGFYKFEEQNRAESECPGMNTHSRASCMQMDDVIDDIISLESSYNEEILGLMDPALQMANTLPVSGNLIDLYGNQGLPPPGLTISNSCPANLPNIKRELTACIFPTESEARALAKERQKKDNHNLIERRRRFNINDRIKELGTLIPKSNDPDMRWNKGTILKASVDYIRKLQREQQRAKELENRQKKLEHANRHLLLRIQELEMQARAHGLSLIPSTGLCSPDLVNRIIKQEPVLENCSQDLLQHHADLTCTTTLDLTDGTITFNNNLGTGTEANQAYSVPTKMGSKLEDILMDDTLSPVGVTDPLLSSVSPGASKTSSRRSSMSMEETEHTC

[2] = target: T2, Apoptotic protease-activating factor 1 (Homo sapiens, UniProt O14727); format: functional
T2 sequence (O14727 whole entry): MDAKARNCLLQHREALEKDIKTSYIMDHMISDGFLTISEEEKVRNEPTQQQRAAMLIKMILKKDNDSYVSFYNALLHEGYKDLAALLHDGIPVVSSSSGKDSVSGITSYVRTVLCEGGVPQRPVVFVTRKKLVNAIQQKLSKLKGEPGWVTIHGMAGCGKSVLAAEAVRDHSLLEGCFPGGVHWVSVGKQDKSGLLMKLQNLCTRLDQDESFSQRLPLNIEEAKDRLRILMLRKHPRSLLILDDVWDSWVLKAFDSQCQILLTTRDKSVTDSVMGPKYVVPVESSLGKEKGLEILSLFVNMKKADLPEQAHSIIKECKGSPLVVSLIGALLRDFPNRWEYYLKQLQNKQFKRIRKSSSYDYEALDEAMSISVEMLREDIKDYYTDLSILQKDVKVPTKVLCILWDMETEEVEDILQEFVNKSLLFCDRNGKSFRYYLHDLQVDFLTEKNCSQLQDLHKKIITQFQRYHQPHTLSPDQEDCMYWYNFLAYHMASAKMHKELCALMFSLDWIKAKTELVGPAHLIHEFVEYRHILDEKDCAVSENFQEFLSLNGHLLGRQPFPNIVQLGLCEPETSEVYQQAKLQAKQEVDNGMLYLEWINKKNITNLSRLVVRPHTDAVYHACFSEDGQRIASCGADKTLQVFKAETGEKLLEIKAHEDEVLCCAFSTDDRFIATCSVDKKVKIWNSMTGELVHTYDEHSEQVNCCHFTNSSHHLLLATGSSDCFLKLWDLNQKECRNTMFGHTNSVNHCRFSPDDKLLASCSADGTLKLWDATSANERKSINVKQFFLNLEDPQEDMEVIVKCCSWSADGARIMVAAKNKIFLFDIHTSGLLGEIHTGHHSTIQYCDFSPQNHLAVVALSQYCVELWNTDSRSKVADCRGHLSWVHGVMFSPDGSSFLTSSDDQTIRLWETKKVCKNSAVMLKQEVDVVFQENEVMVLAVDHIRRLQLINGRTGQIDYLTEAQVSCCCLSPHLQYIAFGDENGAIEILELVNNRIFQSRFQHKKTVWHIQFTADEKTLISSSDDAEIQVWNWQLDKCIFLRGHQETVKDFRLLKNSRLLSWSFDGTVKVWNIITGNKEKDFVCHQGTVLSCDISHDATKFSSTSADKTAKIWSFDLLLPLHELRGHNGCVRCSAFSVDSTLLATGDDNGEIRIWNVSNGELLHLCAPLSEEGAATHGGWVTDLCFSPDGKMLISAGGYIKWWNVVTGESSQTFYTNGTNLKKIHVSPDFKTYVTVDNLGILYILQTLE

[3] = cytotoxicity in MITF-independent A375 cells – cell-based, CellTiter-Glo luminescence, dry powder, set 4, counter-screen for MITF inhibitor project, dose response (AID 624364); format: functional; conditions: A-375;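 further: A375 melanoma cells are MITF independent so this is a counter screen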
[4] = viability loss in MITF-independent A375 cells – cell-based, CellTiter-Glo luminescence, dry powder, set 2, counter-screen for MITF inhibitor project, dose response (AID 624489); format: functional; conditions: A-375;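 further: actives are compounds lowering A375 viability meaning general cytotoxicity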
[5] = viability of PTEN-deleted HCT116 cells – cell-based, HCT116 PTEN knockout, dose response (AID 1047); format: functional;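 further: HCT116 colon tumor cells with PTEN knocked out; cells exposed to compound for 60 hours before readout; potency for loss of cell viability measured by luminescence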
[6] = viability of HCT116 lacking mutant beta-catenin – cell-based, human colon tumor, dose response (AID 1045); format: functional;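 further: HCT116 colon tumor cells with beta catenin knocked out; cells exposed to compound for 60 hours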
[7] = Luminescence Cell-Based Dose Retest to Confirm Inhibitors of Cancer Stem Cells. [Related pubchem assays (depositor defined):AID2717, AID2721]; format: functional; conditions: Homo sapiens
[8] = viability loss in Vero cells – cytotoxicity control for Vif-APOBEC3G degradation inhibitor project, dose response (AID 1117358); format: functional; conditions: Vero
[9] = target: Glutathione-S-transferase (Schistosoma japonicum, UniProt Q26513); test: GST-antibody interaction or FRET quenching – biochemical, TR-FRET, artefact control for Vif-APOBEC3G degradation inhibitor project, dose response (AID 1117362); format: functional
[10] = HIV-1 Vif–A3G interaction blockers – biochemical, TR-FRET, GST-Vif 1-94, biotin-A3G peptide, dose response retest, primary screen (AID 1117319); format: functional;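 further: TR-FRET signal of purified GST-Vif binding a biotinylated A3G peptide; inhibitors lower the FRET signal by blocking Vif and A3G binding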
[11] = IC50 of Artemis nuclease activity blockers – biochemical, fluorescence intensity, dose response (AID 720701); format: functional;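 further: Artemis endonuclease enzyme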
Caspase-6 = target: T3, Caspase-6 (Homo sapiens, UniProt P55212); test: inhibition of CASP6 peptide cleavage – biochemical, VEID-R110 fluorescence, cherry-pick, dose response (AID 720632)
T3 sequence (P55212 whole entry): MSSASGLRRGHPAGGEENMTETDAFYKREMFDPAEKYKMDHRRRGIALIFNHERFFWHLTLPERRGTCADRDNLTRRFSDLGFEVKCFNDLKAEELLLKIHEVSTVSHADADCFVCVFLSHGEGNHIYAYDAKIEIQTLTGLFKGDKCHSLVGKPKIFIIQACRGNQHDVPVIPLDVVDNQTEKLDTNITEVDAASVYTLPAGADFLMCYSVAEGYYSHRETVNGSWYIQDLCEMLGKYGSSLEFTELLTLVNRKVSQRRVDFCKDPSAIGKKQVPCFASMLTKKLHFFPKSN

Caspase-9 = Caspase-9 (Homo sapiens, UniProt P55211); test: inhibitors of purified CASP9 protease – biochemical, fluorescence, plate reader, cherry-picked samples, selectivity assay for caspase-6 inhibitor project, dose response (AID 743293)
[12] = target: T4, Tyrosyl-DNA phosphodiesterase 2 (Homo sapiens, UniProt O95551); test: potency against TDP2 phosphodiesterase activity – biochemical, epi absorbance, IC50, dose response (AID 743297)
T4 sequence (O95551 whole entry): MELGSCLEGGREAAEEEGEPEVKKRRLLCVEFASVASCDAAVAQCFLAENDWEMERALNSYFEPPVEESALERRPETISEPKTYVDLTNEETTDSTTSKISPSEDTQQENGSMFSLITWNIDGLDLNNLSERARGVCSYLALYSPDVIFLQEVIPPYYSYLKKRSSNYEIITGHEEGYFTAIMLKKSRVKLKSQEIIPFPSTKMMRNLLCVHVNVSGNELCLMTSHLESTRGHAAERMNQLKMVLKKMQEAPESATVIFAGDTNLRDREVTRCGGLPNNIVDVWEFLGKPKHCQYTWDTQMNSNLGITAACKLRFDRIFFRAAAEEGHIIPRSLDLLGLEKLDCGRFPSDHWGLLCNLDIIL

Caspase-7 = target: T5, Caspase-7 (Homo sapiens, UniProt P55210); test: caspase-7 enzyme inhibition, selectivity check – biochemical, DEVD-R110 fluorescence, cherry-pick, selectivity assay for caspase-6 inhibitor project, dose response (AID 743295); format: functional
T5 sequence (P55210 whole entry): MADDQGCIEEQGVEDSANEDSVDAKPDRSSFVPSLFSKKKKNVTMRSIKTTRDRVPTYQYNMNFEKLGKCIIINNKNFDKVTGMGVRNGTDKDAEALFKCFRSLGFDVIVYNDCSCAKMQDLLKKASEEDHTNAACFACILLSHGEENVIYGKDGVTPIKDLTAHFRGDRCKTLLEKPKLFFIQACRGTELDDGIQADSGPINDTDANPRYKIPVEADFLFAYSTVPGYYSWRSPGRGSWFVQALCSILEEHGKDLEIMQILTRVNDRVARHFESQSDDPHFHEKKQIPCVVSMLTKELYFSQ

Caspase-8 = Caspase-8 (Homo sapiens, UniProt Q14790); test: inhibitors of purified CASP8 protease – biochemical, Z-IETD-R110 fluorescence, cherry-picked samples, selectivity assay for caspase-6 inhibitor project, dose response (AID 743294)
[13] = target: Sphingosine 1-phosphate receptor 2 (Homo sapiens, UniProt O95136); test: Dose Response Cell Based Assay for Antagonists of the S1P2 Receptor. [Related pubchem assays: 856, 736 ]; format: functional
[14] = system: Streptococcus sp. 'group A'; test: Streptococcus pyogenes SK(-)GAS viability under kanamycin – luminescence, BacTiterGlo, confirmation, counter-screen for streptokinase expression inhibitor project, dose response (AID 1900); format: functional, organism-based
Vero = test: mammalian cell viability reduction – secondary assay, cytotoxicity control for West Nile virus antiviral project, dose response (AID 1650); format: functional; conditions: Chlorocebus sabaeus
Streptokinase A = target: T6, Streptokinase A (Streptococcus pyogenes serotype M1, UniProt P10520); test: viability-normalized secreted streptokinase activity reduction – plasminogen activation absorbance, OD405, dose response (AID 1914); format: functional, Streptococcus pyogenes M1 GAS;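 further: secreted streptokinase activity via plasminogen activation per viability signal from cell pellet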
T6 sequence (P10520 whole entry): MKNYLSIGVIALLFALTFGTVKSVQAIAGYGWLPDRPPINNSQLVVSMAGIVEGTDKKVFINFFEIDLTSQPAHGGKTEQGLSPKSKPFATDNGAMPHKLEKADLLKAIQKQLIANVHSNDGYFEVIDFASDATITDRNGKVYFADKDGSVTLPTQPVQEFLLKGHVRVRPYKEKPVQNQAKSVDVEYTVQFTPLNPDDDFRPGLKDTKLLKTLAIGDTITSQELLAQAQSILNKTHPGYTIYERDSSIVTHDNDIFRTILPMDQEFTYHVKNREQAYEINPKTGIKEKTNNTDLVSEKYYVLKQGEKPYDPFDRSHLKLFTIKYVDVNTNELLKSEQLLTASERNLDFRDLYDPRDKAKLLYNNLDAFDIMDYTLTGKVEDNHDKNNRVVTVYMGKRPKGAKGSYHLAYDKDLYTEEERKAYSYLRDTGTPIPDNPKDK

Streptococcus = test: GAS UMAA2166 growth inhibition – luminescence, BacTiterGlo, counter-screen for streptokinase expression inhibitor project, dose response (AID 1915); format: functional, organism-based;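 further: potency for reduction of bacterial viability or growth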
INS1 = test: INS-1E survival protection against cytokine death – cell-based, luminescence, retest, dose response (AID 449756); format: functional; conditions: Rattus norvegicus;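 further: cell death triggered by IL-1 beta plus TNF-alpha plus IFN-gamma mixture; protective hits raise ATP signal compared with cytokine alone wells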
[15] = rise of 2N DNA cells, HeLa – IC50, dose response (AID 1117349); format: functional, cell-based
[16] = rise of 4N DNA cells, HeLa – IC50, dose response (AID 1117351); format: functional, cell-based
[17] = Dd2 parasite growth inhibition in erythrocytes – SYBR Green, dry powder samples, set 9, dose response (AID 1159568); format: functional, cell-based
[18] = growth inhibition of yeast DHODH-expressing 3D7 parasites – SYBR Green, dry powder samples, dose response (AID 1159570); format: functional, cell-based;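 further: parasite growth measured after 72 hours of compound exposure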
[19] = toxicity to human HepG2 hepatoma cells – cell-based, plate reader, dry powder samples, cytotoxicity control, dose response (AID 1159569); format: functional;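 further: inhibitor potency with signal falling toward the positive control level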
[20] = P. falciparum Dd2 growth inhibitors, dose response, SYBR Green, cherry-picked samples (AID 1159567); format: functional, cell-based
[21] = Dd2 malaria parasite growth inhibition potency – SYBR Green, dry powder samples, dose response (AID 1159566); format: functional, cell-based;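 further: potency for growth inhibition with lower SYBR green DNA signal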
[22] = toxicity to human hepatoma HepG2 cells – cell-based, cherry-picked samples, cytotoxicity control, dose response (AID 1159577); format: functional
[23] = growth inhibition of PfATP4-mutant resistant parasites – NITD609-resistant line, SYBR Green, dry powder, dose response (AID 1159571); format: functional, cell-based;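 further: parasites synchronized at ring stage by sorbitol before testing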

Sequence of Caspase-9 (P55211 1-315 limits assumed): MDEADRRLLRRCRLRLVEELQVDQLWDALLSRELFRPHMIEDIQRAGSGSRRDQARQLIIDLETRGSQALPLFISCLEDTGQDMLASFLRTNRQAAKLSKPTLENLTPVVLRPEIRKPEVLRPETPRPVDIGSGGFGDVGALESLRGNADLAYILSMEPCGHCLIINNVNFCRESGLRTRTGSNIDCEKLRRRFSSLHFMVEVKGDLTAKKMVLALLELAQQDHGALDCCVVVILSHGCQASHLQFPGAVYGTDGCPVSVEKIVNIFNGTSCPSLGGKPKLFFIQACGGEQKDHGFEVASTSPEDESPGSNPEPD
Sequence of Caspase-9 (P55211 331-416 limits assumed): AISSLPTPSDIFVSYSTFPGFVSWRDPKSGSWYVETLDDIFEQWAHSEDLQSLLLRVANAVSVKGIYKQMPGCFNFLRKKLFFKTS
Sequence of Sphingosine 1-phosphate receptor 2 (O95136 whole entry): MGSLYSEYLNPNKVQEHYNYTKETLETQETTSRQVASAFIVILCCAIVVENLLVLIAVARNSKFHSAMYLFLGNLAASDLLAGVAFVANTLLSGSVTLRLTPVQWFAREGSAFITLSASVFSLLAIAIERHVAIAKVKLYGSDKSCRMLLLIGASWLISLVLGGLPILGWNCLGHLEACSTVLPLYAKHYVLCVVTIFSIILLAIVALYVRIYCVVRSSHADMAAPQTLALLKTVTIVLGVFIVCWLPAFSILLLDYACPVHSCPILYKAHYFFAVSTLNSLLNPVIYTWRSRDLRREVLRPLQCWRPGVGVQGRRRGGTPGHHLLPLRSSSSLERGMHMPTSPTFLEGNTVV
Sequence of Caspase-8 (Q14790 217-374 limits assumed): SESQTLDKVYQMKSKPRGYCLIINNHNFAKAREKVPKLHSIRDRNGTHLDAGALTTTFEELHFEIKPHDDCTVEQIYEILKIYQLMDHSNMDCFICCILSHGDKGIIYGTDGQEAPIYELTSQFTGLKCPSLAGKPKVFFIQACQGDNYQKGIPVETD
Sequence of Caspase-8 (Q14790 385-479 limits assumed): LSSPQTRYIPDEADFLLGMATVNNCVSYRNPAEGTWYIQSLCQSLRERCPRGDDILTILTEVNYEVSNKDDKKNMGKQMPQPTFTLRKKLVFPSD
Sequence of Glutathione-S-transferase (Q26513 whole entry): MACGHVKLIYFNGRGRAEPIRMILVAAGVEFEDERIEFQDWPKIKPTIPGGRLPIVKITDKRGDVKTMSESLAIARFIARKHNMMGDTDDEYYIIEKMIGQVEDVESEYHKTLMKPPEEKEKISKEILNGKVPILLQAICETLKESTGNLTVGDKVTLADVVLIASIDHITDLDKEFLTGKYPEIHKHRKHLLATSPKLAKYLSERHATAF

CN1CCN(C2=C(NS(=O)(=O)c3ccccc3)C(=O)c3ccccc3C2=O)CC1
AC50 [1]: 6.9 µM (active)
IC50 [2]: 39.1 µM (active)
AC50 [3]: 44.6 µM (active)
AC50 [4]: 28.1 µM (active)

COC(=O)c1ccc(COc2ccccc2/C=C(\C#N)C(=O)Nc2c(C)cc(C)cc2C)cc1
EC50 [5]: 5.83 µM (active)
EC50 [6]: 5.33 µM (active)
AC50 [7]: 1.28 µM (active)
CC50 [8]: 15.9 µM (active)

Cn1c(C(=O)NCCN2CCOCC2)cc2c(=O)n(C)c3ccccc3c21
IC50 [9]: > 100 µM (active)
IC50 [10]: > 100 µM (active)

O=C1c2ccccc2C(=O)N1OCc1cccc(Cl)c1
IC50 [11]: 2.09 µM (active)

O=C1NC(=O)C(=Cc2ccccc2[N+](=O)[O-])S1
AC50 (Caspase-6): 3.66 µM (active)
AC50 (Caspase-9): 16.1 µM (active)
IC50 [12]: 13.6 µM (inactive)
AC50 (Caspase-7): 9.01 µM (active)
AC50 (Caspase-8): 21 µM (active)

Cc1cc(/C=N/n2cnnc2)c(C)n1-c1ccc(OCc2ccc(Cl)cc2)cc1
IC50 [13]: 49.3 µM (not active)
EC50 [14]: 5.41 µM (active)
CC50 (Vero): 1.02 µM (active)
EC50 (Streptokinase A): 12.9 µM (active)
EC50 (Streptococcus): 12.3 µM (active)
AC50 (INS1): 1.15 µM (active)
IC50 [11]: 15.7 µM (active)

CC(C)OC(=O)OCOP(=O)(CO[C@H](C)Cn1cnc2c(N)ncnc21)OCOC(=O)OC(C)C
IC50 [15]: > 10 µM (inactive)
IC50 [16]: > 10 µM (inactive)

O=C(Nc1ccc(F)cc1)N1C[C@@H]2[C@H](c3ccccc31)[C@@H](CO)N2Cc1ccccc1Cl
AC50 [17]: 12.3 µM (active)

COc1ccccc1C#Cc1ccc([C@@H]2[C@@H](CO)N3CCCCN(CCC(F)(F)F)C[C@H]23)cc1
AC50 [18]: 0.418 µM (active)
AC50 [19]: 9.58 µM (active)
AC50 [20]: 1.13 µM (active)
AC50 [21]: 0.254 µM (active)
AC50 [22]: 36.5 µM (active)
AC50 [23]: 0.221 µM (active)

CCCNC(=O)N1[C@H](CO)[C@H](c2ccc(C#Cc3cccc(F)c3)cc2)[C@@H]1C#N
AC50 [17]: 8.55 µM (active)

— ChEMBL document CHEMBL1201862, “PubChem BioAssay data set” (2004)
